Data from patent publication US7345068B2, “Aromatic amino acid derivatives and medicinal compositions” (priority 2002, dated 2008).
Counter-ions that a name gives are not always drawn.

Key:
LAT1 = molecular target: T1, LAT1 (Homo sapiens, UniProt Q01650); assay: LAT1 inhibiting activity: inhibition of 14C-L-leucine uptake in T24 cells; type: cell-based; conditions: 1 μM 14C-Leu, 1-minute uptake
T1 construct: Using human bladder cancer cell strain T24 cells, in which LAT1 only was strongly expressed; endogenous in cells; host or cells: T24 human bladder cancer cells
T1 sequence (Q01650 whole entry): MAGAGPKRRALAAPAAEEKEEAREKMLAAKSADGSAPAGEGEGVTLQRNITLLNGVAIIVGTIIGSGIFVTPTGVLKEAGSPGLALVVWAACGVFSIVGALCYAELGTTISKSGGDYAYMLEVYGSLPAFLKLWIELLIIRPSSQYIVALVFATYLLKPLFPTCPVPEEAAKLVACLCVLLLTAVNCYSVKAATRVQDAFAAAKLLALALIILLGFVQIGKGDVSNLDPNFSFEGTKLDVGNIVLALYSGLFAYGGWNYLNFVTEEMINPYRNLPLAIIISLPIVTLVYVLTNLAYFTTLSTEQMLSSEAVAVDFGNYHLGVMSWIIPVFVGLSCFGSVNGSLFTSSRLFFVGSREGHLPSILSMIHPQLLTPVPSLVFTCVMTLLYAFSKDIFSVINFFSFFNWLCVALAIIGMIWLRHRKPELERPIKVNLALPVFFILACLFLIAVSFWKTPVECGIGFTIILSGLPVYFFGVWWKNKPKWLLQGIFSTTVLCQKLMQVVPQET
T1 sequence (P08195 102-630 partner): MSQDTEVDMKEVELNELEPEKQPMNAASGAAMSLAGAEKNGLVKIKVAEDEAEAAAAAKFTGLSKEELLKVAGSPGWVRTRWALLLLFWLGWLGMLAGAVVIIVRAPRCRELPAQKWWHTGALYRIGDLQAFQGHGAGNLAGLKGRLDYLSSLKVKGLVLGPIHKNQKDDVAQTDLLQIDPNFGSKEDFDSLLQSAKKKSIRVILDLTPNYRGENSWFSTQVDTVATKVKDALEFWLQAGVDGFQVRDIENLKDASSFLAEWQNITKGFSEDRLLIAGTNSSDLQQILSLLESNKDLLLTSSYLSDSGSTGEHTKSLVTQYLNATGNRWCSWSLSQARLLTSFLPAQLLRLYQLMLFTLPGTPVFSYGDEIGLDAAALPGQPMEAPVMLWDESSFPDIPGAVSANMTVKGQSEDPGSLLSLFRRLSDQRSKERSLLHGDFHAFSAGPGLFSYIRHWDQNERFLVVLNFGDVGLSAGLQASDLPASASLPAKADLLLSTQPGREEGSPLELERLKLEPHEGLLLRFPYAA
Protocol: 1) To each of the weighed test compounds, DMSO was added to prepare a 100 mM solution or suspension as a DMSO stock. In an assay, the stock was diluted 1,000 fold with a buffer described below. The final concentration of the test compound was 100 μM and the final concentration of DMSO was 0.1%.
2) The LAT1 inhibiting activity of the test compound was determined in the following manner. Using human bladder cancer cell strain T24 cells, in which LAT1 only was strongly expressed, inhibiting activity of each test compound against “^14C”-L-leucine uptake was determined as the LAT1 inhibiting activity.
T24 cells in a logarithmic growth-phase were transferred to a 24-well plate at 0.8×10^5 cell/well and cultured at 37° C. for 2 days. After the plate was incubated at 37° C. on a water bath for 5 minutes, the fixed cells were washed three times with a Hank's balanced salt solution (HBSS: 25 mM HEPES, 125 mM choline chloride, 5.6 mM glucose, 4.8 mM KCl, 1.2 mM MgSO4, 1.2 mM KH2PO4, 1.3 mM CaCl2, pH 7.4) warmed to 37° C., not containing Na^+, to which 500 μl of HBSS (37° C.) was added. Then, further incubation was carried out for 7 minutes.
After the incubation was finished, a supernatant was replaced with HBSS containing 1 μM ^14C-Leu and 100 μM test compound (37° C.), followed by 1-minute uptake. Then, the cells were washed three times with HBSS of 4° C. The washed cells were added with 500 μl of 0.1 N NaOH to dissolve the cells for 20 minutes. The cell solution was transferred to a vial, to which 3 ml of a scintillator was added to measure the radioactivity with a liquid scintillation counter.
Inhibition % was calculated by the following formula. Inhibition %=100−(radioactivity of the well added with the test compound)/(radioactivity of the well not added with the test compound)×100

Row | SMILES | melting point | IC50 (LAT1)
1 | N[C@@H](Cc1cc(I)c(OCCCBr)c(I)c1)C(=O)O [Example 1, O-(3-bromopropyl)-3,5-diiodo-L-tyrosine] | 213 to 215 °C (dec.) | –
2 | N[C@@H](Cc1cc(Cl)c(OCc2cccc3nc(-c4ccc(O)cc4)oc23)c(Cl)c1)C(=O)O [Example 22] | 239 to 241 °C (dec.) | 0.2 µM
3 | N[C@@H](Cc1cc(Cl)c(OCc2cccc3nc(-c4ccc(Cl)cc4)oc23)c(Cl)c1)C(=O)O [Example 30] | 209 to 211 °C | 0.3 µM
4 | N[C@@H](Cc1cc(Cl)c(OCc2cccc3nc(-c4ccc(F)cc4)oc23)c(Cl)c1)C(=O)O [Example 32] | 233 to 236 °C (dec.) | 0.24 µM
5 | N[C@@H](Cc1cc(Cl)c(OCc2cccc3nc(-c4ccncc4)oc23)c(Cl)c1)C(=O)O [Example 33] | 214 to 218 °C (dec.) | 0.15 µM
6 | N[C@@H](Cc1cc(Cl)c(OCc2cccc3nc(-c4ccco4)oc23)c(Cl)c1)C(=O)O [Example 34] | 227 to 230 °C (dec.) | 0.29 µM
7 | COc1ccc(-c2nc3cc(C)cc(COc4c(Cl)cc(C[C@H](N)C(=O)O)cc4Cl)c3o2)cc1 [Example 35] | 210 to 213 °C (dec.) | 0.28 µM
8 | Cc1ccc(-c2nc3cccc(COc4c(Cl)cc(C[C@H](N)C(=O)O)cc4Cl)c3o2)cc1 [Example 36] | 221 to 231 °C (dec.) | 0.2 µM
9 | CN(C)c1ccc(-c2nc3cccc(COc4c(Cl)cc(C[C@H](N)C(=O)O)cc4Cl)c3o2)cc1 [Example 37] | 219 to 222 °C (dec.) | 0.13 µM
10 | N[C@@H](Cc1cc(Cl)c(OCc2cccc3oc(-c4ccccc4)nc23)c(Cl)c1)C(=O)O [Example 38] | 219 to 223 °C (dec.) | 0.33 µM
11 | Cc1c(-c2ccccc2)oc2c(COc3c(Cl)cc(C[C@H](N)C(=O)O)cc3Cl)cccc2c1=O [Example 39] | 202 to 204 °C (dec.) | 0.23 µM
12 | N[C@@H](Cc1cc(Cl)c(OCc2cccc3nc(-c4cccc(O)c4)oc23)c(Cl)c1)C(=O)O [Example 48] | – | 0.3 µM
13 | N[C@@H](Cc1cccc(Oc2ccc3ccccc3c2)c1)C(=O)O [Example 49-2), 3-(2-naphthyloxy)-L-phenylalanine] | 210 to 214 °C (dec.) | 0.1 µM
14 | N[C@@H](Cc1cccc(Oc2ccc3[nH]ccc3c2)c1)C(=O)O [Example 52] | 205 to 210 °C (dec.) | 0.5 µM
15 | N[C@@H](Cc1cccc(Oc2cccc(-c3ccccc3)c2)c1)C(=O)O [Example 53] | 203 to 206 °C (dec.) | 0.12 µM
16 | N[C@@H](Cc1cccc(Oc2cccc3ccccc23)c1)C(=O)O [Example 54] | 180 to 186 °C (dec.) | 0.71 µM
17 | COc1ccc2cc(Oc3cccc(C[C@H](N)C(=O)O)c3)ccc2c1 [Example 55, 3-[2-(6-methoxy)naphthyloxy]-L-phenylalanine] | 202 to 206 °C (dec.) | 0.29 µM
18 | N[C@@H](Cc1cccc(Oc2ccc3cc(O)ccc3c2)c1)C(=O)O [Example 56, 3-[2-(6-hydroxy)naphthyloxy]-L-phenylalanine] | 210 to 220 °C (dec.) | 0.26 µM
19 | N[C@@H](Cc1cccc(OCc2ccc3ccccc3c2)c1)C(=O)O [Example 58, 3-[(2-naphthyl)methoxy]-L-phenylalanine] | 201 to 204 °C (dec.) | 0.49 µM
20 | N[C@@H](Cc1cc(Cl)c(OCc2cccc3nc(Cc4ccccc4)oc23)c(Cl)c1)C(=O)O [Example 63] | 198 to 200.5 °C (dec.) | 0.94 µM
21 | CN(C)c1ccc(-c2nc3cccc(COc4c(Cl)cc(C[C@H](N)C(=O)O)cc4Cl)c3o2)cn1 [Example 65] | 233 to 236 °C (dec.) | 0.33 µM
22 | CN(C)c1ncc(-c2nc3cccc(COc4c(Cl)cc(C[C@H](N)C(=O)O)cc4Cl)c3o2)cn1 [Example 70] | 218 to 221 °C (dec.) | 0.29 µM
23 | NC(Cc1cc(Cl)c(OCc2cccc3c2OC(c2ccccc2)CN3)c(Cl)c1)C(=O)O (stereo not drawn) [Example 71] | 199 to 204 °C (dec.) | 0.37 µM
24 | CN(CCO)c1ncc(-c2nc3cccc(COc4c(Cl)cc(C[C@H](N)C(=O)O)cc4Cl)c3o2)cn1 [Example 72] | 212 to 215 °C (dec.) | 0.36 µM
25 | N[C@@H](Cc1cc(Cl)c(OCc2cccc3nc4n(c23)Cc2ccccc2-4)c(Cl)c1)C(=O)O [Example 73] | 200 to 208 °C (dec.) | 0.11 µM

The next lines start with the values.

Row | melting point | IC50 (LAT1) | SMILES
26 | 222.5 to 224 °C (dec.) | – | COC(=O)c1c(-c2ccccc2)oc2c(COc3c(Cl)cc(C[C@H](N)C(=O)O)cc3Cl)cccc2c1=O (as salt: HCl) [Example 87]
27 | 223 to 228 °C (dec.) | – | CN(C)c1ccc(-c2cccc(Oc3cccc(C[C@H](N)C(=O)O)c3)c2)cn1 (as salt: hydrochloride) [Example 98]
28 | 210 to 215 °C (dec.) | 0.95 µM | COc1ncc(-c2nc3cccc(COc4c(Cl)cc(C[C@H](N)C(=O)O)cc4Cl)c3s2)c(OC)n1 [Example 74]
29 | 218 to 221 °C (dec.) | 0.2 µM | N[C@@H](Cc1cc(Cl)c(OCc2cccc3c(=O)c(CO)c(-c4ccccc4)oc23)c(Cl)c1)C(=O)O [Example 81]
30 | 226 to 230 °C (dec.) | 0.55 µM | Nc1c(-c2ccccc2)oc2c(COc3c(Cl)cc(C[C@H](N)C(=O)O)cc3Cl)cccc2c1=O [Example 83]
31 | 183 to 187 °C (dec.) | 0.27 µM | N[C@@H](Cc1cc(Cl)c(OCc2cccc3nc(-c4ccccc4)[nH]c23)c(Cl)c1)C(=O)O [Example 85]
32 | – | 0.23 µM | COC(=O)c1c(-c2ccccc2)oc2c(COc3c(Cl)cc(C[C@H](N)C(=O)O)cc3Cl)cccc2c1=O [Example 87]
33 | 203 to 210 °C (dec.) | 0.11 µM | Cc1cc(C[C@H](N)C(=O)O)cc(C)c1OCc1cccc2nc(-c3ccccc3)oc12 [Example 90]
34 | 207 to 210 °C (dec.) | 0.1 µM | Cc1c(-c2ccccc2)oc2c(CNc3c(Cl)cc(C[C@H](N)C(=O)O)cc3Cl)cccc2c1=O [Example 91]
35 | 214 to 217 °C (dec.) | 0.17 µM | N[C@@H](Cc1cccc(Oc2ccc(-c3ccccc3)cc2)c1)C(=O)O [Example 93]
36 | 182 to 185 °C (dec.) | 0.84 µM | N[C@@H](Cc1cccc(Oc2cccc(-c3ccncc3)c2)c1)C(=O)O [Example 96]
37 | 214 to 218 °C (dec.) | 0.01 µM | CN(C)c1ccc(-c2cccc(Oc3cccc(C[C@H](N)C(=O)O)c3)c2)cn1 [Example 97]
38 | – | 0.2 µM | CN(C)c1ccc(-c2cccc(Oc3cccc(C[C@H](N)C(=O)O)c3)c2)cn1 [Example 98]
39 | 187 to 192 °C (dec.) | 0.52 µM | N[C@@H](Cc1cccc(Oc2cccc(-c3ccccn3)c2)c1)C(=O)O [Example 99]
40 | 200 to 204 °C (dec.) | 0.22 µM | N[C@@H](Cc1cccc(Oc2cccc(-c3cccnc3)c2)c1)C(=O)O [Example 100]
41 | 193 to 198 °C (dec.) | 0.06 µM | N[C@@H](Cc1cccc(Oc2cccc(-c3cccc(Cl)c3)c2)c1)C(=O)O [Example 102]
42 | 204 to 208 °C (dec.) | 0.06 µM | N[C@@H](Cc1cccc(Oc2cccc(-c3ccc(Cl)cc3)c2)c1)C(=O)O [Example 103]
43 | 185 to 190 °C (dec.) | 0.83 µM | N[C@@H](Cc1cccc(Oc2cccc(-c3cnc4ccccc4c3)c2)c1)C(=O)O [Example 106]
44 | 191 to 194 °C (dec.) | 0.67 µM | CN(C)c1ncc(-c2cccc(Oc3cccc(C[C@H](N)C(=O)O)c3)c2)cn1 [Example 108]
45 | 199 to 201 °C (dec.) | 0.81 µM | N[C@@H](Cc1cccc(-c2cccc(-c3ccccc3)c2)c1)C(=O)O [Example 112]
